These results are taken from PMC6792352, “Limited Chemical Structural Diversity Found to Modulate Thyroid Hormone Receptor in the Tox21 Chemical Library” (Environmental Health Perspectives, 2019).

Like-named read-outs stand apart in the source and are kept apart here.

Data set [1] deals with thyroid hormone receptor (endogenous TRα and TRβ). In words: GH3-TRE-Ag primary qHTS, luciferase reporter, agonist mode (TOX21_TR_LUC_GH3_Agonist, aeid 803). The data set is classed as cell-based, rat. Conditions: for GH3-TRE-Ag AC50 hitc: hit call from tcpl; for AC50: read-out: GH3-TRE-Ag AC50.
The test system is the same in data set [2]. In words: GH3-TRE-Ag-Followup confirmation (TOX21_TR_LUC_GH3_Agonist_Followup, aeid 2226). Conditions: for GH3-TRE-Ag-Followup hitc: hit call from tcpl; for AC50: read-out: GH3-TRE-Ag-Followup AC50. In kind it is cell-based, rat.
The target of the next data set is T1, human RXRα (Homo sapiens, UniProt P19793).
T1 construct: host or cells: GeneBLAzer UAS-bla HEK 293T
T1 sequence (P19793 227-458 limits assumed): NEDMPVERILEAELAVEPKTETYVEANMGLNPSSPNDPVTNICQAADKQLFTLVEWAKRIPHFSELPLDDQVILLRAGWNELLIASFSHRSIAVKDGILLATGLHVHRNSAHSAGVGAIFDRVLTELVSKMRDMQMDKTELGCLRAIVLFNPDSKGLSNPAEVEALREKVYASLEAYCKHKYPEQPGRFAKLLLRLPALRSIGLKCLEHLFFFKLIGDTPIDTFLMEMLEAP
In words: RXRa-bla-Ag mammalian one-hybrid beta-lactamase assay (TOX21_TR_RXR_BLA_Agonist_Followup_ratio, aeid 2253). As to conditions: for tr-followup-rxr-bla-agonist-1 hitc: hit call from tcpl; for Emax: read-out: EMax (% of Control) tr-followup-rxr-bla-agonist-1. In kind it is cell-based.

The target in data set [3] is T2, TRα ligand-binding domain (Homo sapiens, UniProt P10827).
T2 construct: the receptor LBDs expressed as glutathione S-transferase (GST) fusion proteins; purchased
In words: TRa-coa LanthaScreen TR-FRET coactivator (SRC-2 peptide) recruitment, agonist (TOX21_TRA_COA_Agonist_Followup_ratio, aeid 2230). In kind it is biochemical. As to conditions: for TRa-coa hitc: hit call from tcpl; for Emax: read-out: EMax (% of Control) tra-coa-agonist-followup-1.

Data set [4] deals with thyroid hormone receptor (TR). In words: Classification of TR actives across characterization assays (TR-Ag / RXR-Ag; TR model binary). Also noted: key to Categorization Code: FP, false positive. Conditions: for Categorization Code: TR agonist characterization. A digest of the protocol:
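Pharmaceuticals excluded; actives called from GH3-TRE qHTS (agonist, antagonist, viability) on 8,305 chemicals. Confirmation of 84 selected chemicals used GH3-TRE-Ag, mammalian one-hybrid TRβ and RXRα UAS-bla HEK 293T specificity screens, parental HEK293T viability, and two TR:coactivator recruitment assays.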

The next data set has as its target luciferase (Photinus pyralis, UniProt P08659). In words: Luciferase inhibition.
Data set [5] relates to GH3-TRE-Luc cell line. As to conditions: read-out: AC50 (uM) modified / 1000; Tox21_110001=Tox21_303049; viability, 1 nM T3 present, 24 h.
A further data set is described as follows: in vitro. As to conditions: rat, gh3-tre-luc cells, AC50 (uM) modified / 1000.
The target of data set [6] is T3, human TRβ ligand-binding domain (Homo sapiens, UniProt P10828).
T3 sequence (P10828 217-461 limits assumed): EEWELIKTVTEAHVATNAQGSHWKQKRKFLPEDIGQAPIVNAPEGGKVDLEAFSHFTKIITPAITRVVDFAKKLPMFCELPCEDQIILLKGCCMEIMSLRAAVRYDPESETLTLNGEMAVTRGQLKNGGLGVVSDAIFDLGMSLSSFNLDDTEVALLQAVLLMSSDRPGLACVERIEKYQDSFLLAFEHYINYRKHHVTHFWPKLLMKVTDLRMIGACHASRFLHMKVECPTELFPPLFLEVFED
In words: TRb-bla agonist mammalian one-hybrid beta-lactamase assay (TOX21_TRB_BLA_Agonist_Followup_ratio, aeid 2236). In kind it is cell-based. Also noted: host or cells: GeneBLAzer UAS-bla HEK 293T. Conditions: for TRb-bla hitc: hit call from tcpl.

The target of data set [7] is T3, human TRβ ligand-binding domain. In words: TRb-coa LanthaScreen TR-FRET coactivator (SRC-2 peptide) recruitment, agonist (TOX21_TRB_COA_Agonist_Followup_ratio, aeid 2244). Conditions: for TRb-coa hitc: hit call from tcpl; for Emax: read-out: EMax (% of Control) trb-coa-agonist-followup-1. The data set is classed as biochemical. Also noted: host or cells: GeneBLAzer UAS-bla HEK 293T.

Data set [8] has as its system GH3-TRE-Luc cell line. In words: GH3-TRE-Via cell viability, CellTiter-Fluor (TOX21_TR_LUC_GH3_Antagonist_viability, aeid 805).
Data set [9] is described as follows: Global cytotoxicity: eighteen Tox21 cell viability assays. The data set is classed as cell-based.
Data set [10] deals with Tox21 cell viability assays (different cell types). Described as above. In kind it is cell-based.
The test system of data set [11] is GH3-TRE-Luc cell line.

T2 sequence (P10827 163-410 isoform P10827-2 limits assumed, other chains not shown): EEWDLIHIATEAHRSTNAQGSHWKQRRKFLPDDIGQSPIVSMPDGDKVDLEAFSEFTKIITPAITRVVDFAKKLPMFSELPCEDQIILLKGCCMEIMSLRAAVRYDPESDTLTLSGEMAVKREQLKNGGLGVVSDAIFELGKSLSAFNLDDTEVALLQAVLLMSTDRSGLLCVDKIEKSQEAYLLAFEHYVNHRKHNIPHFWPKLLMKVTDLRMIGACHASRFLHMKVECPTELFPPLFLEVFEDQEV
luciferase, sequence (P08659 whole entry, species assumed): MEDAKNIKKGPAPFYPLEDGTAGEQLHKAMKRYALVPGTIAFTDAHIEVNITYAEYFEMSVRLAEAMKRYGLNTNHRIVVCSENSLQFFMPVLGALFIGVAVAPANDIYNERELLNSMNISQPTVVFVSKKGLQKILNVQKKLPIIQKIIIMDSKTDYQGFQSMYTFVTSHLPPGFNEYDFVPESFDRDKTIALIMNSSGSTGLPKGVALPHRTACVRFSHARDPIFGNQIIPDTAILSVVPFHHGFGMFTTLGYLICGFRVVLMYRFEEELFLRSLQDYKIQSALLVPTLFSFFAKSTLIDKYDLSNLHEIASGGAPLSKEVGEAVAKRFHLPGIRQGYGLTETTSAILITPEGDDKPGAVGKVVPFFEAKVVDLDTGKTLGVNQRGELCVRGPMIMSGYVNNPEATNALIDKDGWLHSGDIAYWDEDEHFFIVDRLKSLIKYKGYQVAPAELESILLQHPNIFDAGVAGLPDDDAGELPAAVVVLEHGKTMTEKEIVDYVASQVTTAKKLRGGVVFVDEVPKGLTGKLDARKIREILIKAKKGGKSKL

With `CN(C)c1ccc(N=O)cc1` [N,N-dimethyl-4-nitrosoaniline], in data set [1], the “EMax (% of Control) gh3-tre-agonist” value is listed as 31.0 % of Control. In data set [1], the “GH3-TRE-Ag AC50 hitc” value came to 1. For the same compound, the AC50 in [1] was 12.3 µM; in [2], 9.01 µM; on human RXRα it was over 92 µM; in data set [3] (agonist, read-out: TRa-coa AC50) it was over 92 µM; in data set [6] (agonist, read-out: TRb-bla AC50), over 92 µM; in data set [7] (agonist, read-out: TRb-coa AC50), over 92 µM. For the same compound, the AC50 with GH3-TRE-Luc cell line [8] (Rattus norvegicus, read-out: TR_LUC_GH3_Antagonist_viability AC50 (uM)) worked out at 6.9 µM. Moreover, the “EMax (% of Control) gh3-tre-agonist-followup-1_agonist” value in data set [2] is 47.7 % of Control. In [2], this compound had a GH3-TRE-Ag-Followup hitc of 1. The compound also returned a tr-followup-rxr-bla-agonist-1 hitc at human RXRα of 0. Moreover, the Emax at human RXRα is 1.8%; in data set [3], -0.217%; in data set [6] (read-out: EMax (% of Control) trb-bla-agonist-followup-1) it was 8.4%; in data set [7] it was -0.165%. The compound further yielded a TRa-coa hitc in data set [3] (agonist) of 0. Besides, the “Categorization Code” value in [4] is given as “FP”. Also, on luciferase, the “luciferase inhibition” value is reported as “luciferase inhibitor”. Also, the CC50 in the data set with GH3-TRE-Luc cell line [5] worked out at 8.37 µM. Also, the CC50 at 24 h in the data set “in vitro” amounted to 5.44 µM. This compound also registered a TRb-bla hitc in data set [6] (agonist) of 0. In addition, the TRb-coa hitc in [7] (agonist) was found to be 0. The TR_LUC_GH3_Antagonist_viability hitc in the data set on GH3-TRE-Luc cell line [8] (hit call from tcpl) amounted to 1.
Consider `CSCC[C@H](NC(=O)[C@H](Cc1ccc(OS(=O)(=O)O)cc1)NC(=O)[C@@H](N)CC(=O)O)C(=O)NCC(=O)N[C@@H](Cc1c[nH]c2ccccc12)C(=O)N[C@@H](CCSC)C(=O)N[C@@H](CC(=O)O)C(=O)N[C@@H](Cc1ccccc1)C(N)=O` [Sincalide, reference compound], for which the AC50 is over 92 µM. In [1], the “EMax (% of Control) gh3-tre-agonist” value is listed as 80.1 % of Control and the “GH3-TRE-Ag AC50 hitc” value is listed as 1. Further, in data set [1] (primary qHTS, agonist mode, 24 h, top concentration 92 μM), the AC50 is 12.4 µM. Further, in [2], the “EMax (% of Control) gh3-tre-agonist-followup-1_agonist” value was 19.9 % of Control and the GH3-TRE-Ag-Followup hitc is listed as 0. Moreover, the AC50 in data set [2] (confirmation, agonist mode) came to 8.59 µM. At human RXRα (HEK 293T one-hybrid, agonist mode, inactive set to 1,000, read-out: RXRa-bla-Ag AC50), the AC50 was determined as 10.5 µM. Moreover, on human RXRα, the tr-followup-rxr-bla-agonist-1 hitc stood at 1 and the Emax was 36.1%. Moreover, the AC50 in [3] (cell-free coactivator recruitment, read-out: TRa-coa-Ag AC50) is over 92 µM. The TRa-coa hitc in [3] (agonist) amounted to 0. Further, in data set [3], the Emax was -0.4%. Also, the AC50 in [9] was over 92 µM. Further, in data set [10], the “GLOBAL CYTOTOXICITY cytotox.median” value is recorded as over 92 and the “GLOBAL CYTOTOXICITY cytotox.number_Active” value is listed as 0. In addition, in data set [4], the “Categorization Code” value is on record as “RXR-Ag”. The Classification entry in data set [4] (TR-Ag = TR agonist, RXR-Ag = RXR agonist) is on record as “RXR-Ag”. In the data set with GH3-TRE-Luc cell line [11], this compound displayed a TR_LUC_GH3_Antagonist_viability hitc of 0. In addition, the half-maximal activity concentration (AC50) in [6] (HEK 293T one-hybrid, agonist mode, read-out: TRb-bla-Ag AC50) is over 92 µM. In data set [6] (agonist), this compound returned a TRb-bla hitc of 0. The AC50 in [7] (cell-free coactivator recruitment, read-out: TRb-coa-Ag AC50) was over 92 µM. The compound further came in with a TRb-coa hitc in data set [7] (agonist) of 0. In [7], the Emax is -0.125%.
